In ChEMBL document CHEMBL1201862, “PubChem BioAssay data set” (2004):
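Five concentrations, 48 hours, 96-well plates. Here, GI50 denotes the concentration required for 50% inhibition of growth.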 Active and inactive are the calls of the source. No stated cut-off is given here; in the data, active = GI50 up to about 1.1 µM and inactive = higher.

Experiments:
Assay in all cases: inhibition of tumour cell growth, NCI panel, 48 h
[1] = system: CCRF-CEM
[2] = system: DMS-114
[3] = system: HCC 2998
[4] = system: HCT-15
[5] = system: HOP-18
[6] = system: HOP-92
[7] = system: IGROV-1
[8] = system: KM-20L2
[9] = system: KM12
[10] = system: M19-MEL
[11] = system: OVCAR-3
[12] = system: RXF 393
[13] = system: SF-268
[14] = system: SF-295
[15] = system: SW-620
[16] = system: TK-10
[17] = system: U-251
[18] = system: LXFL 529
[19] = system: SR

Measured: GI50

Cc1nc(-c2cccnc2)sc1C(=O)/C=C/c1cccc([N+](=O)[O-])c1
inactive: [1] > 100 µM | [2] > 100 µM | [3] > 100 µM | [5] > 100 µM | [6] > 100 µM | [7] > 100 µM | [8] > 100 µM | [9] > 100 µM | [10] > 100 µM | [11] > 100 µM | [12] > 100 µM | [13] > 100 µM | [14] > 100 µM | [15] > 100 µM | [16] > 100 µM | [17] > 100 µM
> 100 µM: [4]

O=C(CC(=O)c1ccc([N+](=O)[O-])cc1)C(=O)Nc1nccs1
> 100 µM: [4]
inactive: [1] > 100 µM | [2] > 40.5 µM | [3] > 100 µM | [5] > 100 µM | [6] > 100 µM | [7] > 100 µM | [8] > 100 µM | [9] > 100 µM | [18] > 100 µM | [11] > 100 µM | [12] > 100 µM | [13] > 100 µM | [19] > 100 µM | [15] > 100 µM | [16] > 100 µM | [17] > 100 µM

C1=CC=C2NCCSCC/N=C3/C=CC=CC=C3NCCSCC/N=C\2C=C1
inactive: [1] > 100 µM | [2] > 100 µM | [3] > 100 µM | [5] > 100 µM | [7] > 100 µM | [8] > 100 µM | [9] > 100 µM | [18] > 100 µM | [10] > 100 µM | [11] > 100 µM | [13] > 100 µM | [14] > 100 µM | [15] > 100 µM | [16] > 100 µM | [17] > 100 µM
> 100 µM: [4]

O=C(Nc1ccc(C(F)(F)F)cc1[N+](=O)[O-])C(=O)Nn1c(S)nc2ccccc2c1=O
> 100 µM: [4]
inactive: [1] > 100 µM | [2] > 100 µM | [3] > 100 µM | [5] > 100 µM | [6] > 100 µM | [7] > 100 µM | [8] > 100 µM | [9] > 100 µM | [10] > 100 µM | [12] > 100 µM | [13] > 100 µM | [14] > 100 µM | [19] > 100 µM | [15] > 100 µM | [16] > 100 µM | [17] > 100 µM

O=C1C(c2ccccc2)=[N+]([O-])c2cc([N+](=O)[O-])ccc21
inactive: [1] 8.93 µM | [2] 14.3 µM | [3] 27.5 µM | [5] 88.1 µM | [6] 30.5 µM | [7] 22.4 µM | [8] 23.5 µM | [9] 20.5 µM | [10] 17.7 µM | [11] 18.2 µM | [12] 15.9 µM | [13] 19.7 µM | [14] 48.2 µM | [15] 60.3 µM | [16] 20.1 µM | [17] 27.7 µM
21.4 µM: [4]

COC(=O)C(C#N)C1NC(=O)c2ccccc21 (configuration not stated)
> 100 µM: [4]
inactive: [1] > 100 µM | [2] > 100 µM | [3] > 100 µM | [5] > 100 µM | [6] > 100 µM | [7] > 100 µM | [8] > 100 µM | [9] > 100 µM | [10] > 100 µM | [11] > 100 µM | [12] > 100 µM | [13] > 100 µM | [14] > 100 µM | [19] > 100 µM | [15] > 100 µM | [16] > 100 µM | [17] > 100 µM
